{"source": "paper PMC9229564", "about": "(Viruses, 2022)", "key": {"[1]": {"test_system": "CHIKV", "details": "previous work; cited from earlier work"}, "[2]": {"target": "human SK1 (Homo sapiens, UniProt Q9NYA1)", "sequence (Q9NYA1 whole entry)": "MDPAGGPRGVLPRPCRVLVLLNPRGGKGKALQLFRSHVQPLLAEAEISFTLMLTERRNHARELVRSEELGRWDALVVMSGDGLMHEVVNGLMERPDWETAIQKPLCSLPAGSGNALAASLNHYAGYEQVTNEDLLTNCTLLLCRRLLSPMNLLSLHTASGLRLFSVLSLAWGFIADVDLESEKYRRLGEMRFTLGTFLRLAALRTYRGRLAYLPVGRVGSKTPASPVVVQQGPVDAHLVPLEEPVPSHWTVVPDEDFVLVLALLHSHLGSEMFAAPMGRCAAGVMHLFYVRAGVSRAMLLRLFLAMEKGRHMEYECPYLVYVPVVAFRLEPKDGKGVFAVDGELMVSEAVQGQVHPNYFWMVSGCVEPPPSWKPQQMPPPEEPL", "test": "SK1 inhibition (Ki)", "type": "biochemical"}, "[3]": {"target": "T1, human SK2 (Homo sapiens, UniProt Q9NRA0)", "T1 sequence (Q9NRA0 1-654)": "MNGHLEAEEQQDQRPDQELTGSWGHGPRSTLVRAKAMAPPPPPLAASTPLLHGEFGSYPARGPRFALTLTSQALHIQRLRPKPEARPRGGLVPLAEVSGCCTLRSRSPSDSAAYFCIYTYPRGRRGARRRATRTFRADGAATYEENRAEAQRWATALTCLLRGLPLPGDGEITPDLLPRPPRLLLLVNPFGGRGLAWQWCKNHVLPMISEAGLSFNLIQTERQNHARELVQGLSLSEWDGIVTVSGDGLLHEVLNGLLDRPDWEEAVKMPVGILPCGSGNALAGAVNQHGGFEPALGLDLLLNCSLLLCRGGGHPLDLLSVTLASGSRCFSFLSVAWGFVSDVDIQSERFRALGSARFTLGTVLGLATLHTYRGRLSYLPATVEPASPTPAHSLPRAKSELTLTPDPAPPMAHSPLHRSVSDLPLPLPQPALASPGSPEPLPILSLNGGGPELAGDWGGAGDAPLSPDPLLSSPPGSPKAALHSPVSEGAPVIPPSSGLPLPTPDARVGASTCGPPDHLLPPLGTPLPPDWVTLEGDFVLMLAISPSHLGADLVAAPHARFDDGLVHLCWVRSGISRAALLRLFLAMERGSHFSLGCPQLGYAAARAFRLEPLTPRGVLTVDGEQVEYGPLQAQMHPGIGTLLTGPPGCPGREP", "test": "SK2 inhibition (Ki)", "type": "biochemical"}, "[4]": {"test_system": "CHIKV", "test": "CHIKV infection of HeLa cells, immunofluorescence high-content imaging", "type": "cell-based, Chikungunya virus (clone 181/25)", "details": "for inhibition of CHIKV infection (nsP3 expression), screen: 20 µM, cutoff at least 50% inhibition with at least 75% cell viability; for EC50: HeLa cells, CHIKV infection, increasing concentration of inhibitor"}, "[5]": {"test_system": "SK1 and SK2", "design": "method as in earlier work", "details": "yeast assay; more potent at SK1 than SK2; cited from earlier work"}, "[6]": {"test_system": "HeLa cells", "test": "virus-free cell viability assay", "type": "cell-based"}, "[7]": {"test_system": "CHIKV", "test": "qRT-PCR of viral nsP1 expression in CHIKV-infected HeLa cells", "type": "cell-based, Chikungunya virus (clone 181/25)", "details": "20 µM, 1 h pre-treatment, MOI 1, 24 h"}, "[8]": {"test_system": "CHIKV", "test": "plaque assay of infectious virus release (supernatants on Vero E6 cells)", "type": "cell-based, Chikungunya virus (clone 181/25)", "details": "25 µM, supernatant 24 h post-infection, plaques on Vero E6 over 72 h"}, "[9]": {"details": "1 h pre-treatment, HeLa, MOI = 1, 24 h"}}, "note": "“Also recorded” adds a separate entry of the source. Where two headings read alike, the source gives them in different places.", "data": [{"smiles": "O=C(NCc1ccncc1)C12CC3CC(C1)CC(c1ccc(Cl)cc1)(C3)C2", "note": "[ABC294640]", "values": [{"measurement": "timing of effective inhibition of CHIKV infection", "setting": "[1]", "value": "most effective at inhibiting CHIKV infection"}]}, {"smiles": "CCCCCCCCCCCCc1ccc(CN(C)C2CCCC2O)cc1", "note": "(stereo not drawn) [SLL3041783]", "values": [{"measurement": "Ki", "setting": "[2]; read-out: SK1 Ki", "value": "2400 ± 610", "unit": "nM"}, {"measurement": "Ki", "setting": "[3]; read-out: SK2 Ki", "value": "> 3000", "unit": "nM"}, {"measurement": "inhibition of CHIKV infection (nsP3 expression), screen", "setting": "[4]; [9]", "value": "significantly inhibited CHIKV infection"}, {"measurement": "EC50", "setting": "[4]; Chikungunya virus, HeLa", "value": 3330, "unit": "nM"}]}, {"smiles": "CCCCCOc1ccc2cc(-c3noc([C@@H]4[C@@H](O)CCN4C(=N)N)n3)ccc2c1", "note": "[SLC5111312]", "values": [{"measurement": "Ki", "setting": "[2]", "value": "360 ± 90", "unit": "nM"}, {"measurement": "Ki", "setting": "[3]", "value": "330 ± 70", "unit": "nM"}, {"measurement": "inhibition of CHIKV infection (nsP3 expression), screen", "setting": "[4]; [9]", "value": "significantly inhibited CHIKV infection"}, {"measurement": "EC50", "setting": "[4]; Chikungunya virus, HeLa", "value": 11800, "unit": "nM"}, {"measurement": "potency at SK1 relative to SK2", "setting": "[5]", "value": 2, "unit": "fold"}]}, {"smiles": "N=C(N)N1CCC[C@H]1Cc1nc(-c2ccc(Oc3nc(Br)cs3)cc2)no1", "note": "[SLC4091425]", "values": [{"measurement": "Ki", "setting": "[2]; read-out: SK1 Ki", "value": "> 3000", "unit": "nM"}, {"measurement": "Ki", "setting": "[3]; read-out: SK2 Ki", "value": "> 3000", "unit": "nM"}, {"measurement": "inhibition of CHIKV infection (nsP3 expression), screen", "setting": "[4]; [9]", "value": "significantly inhibited CHIKV infection"}, {"measurement": "EC50", "setting": "[4]; Chikungunya virus, HeLa", "value": 3350, "unit": "nM"}]}, {"smiles": "CCCCCCCCCCCCc1ccc(CN2CCCC2CO)cc1", "note": "(stereo not drawn) [SLL3071511]", "values": [{"measurement": "Ki", "setting": "[3]; read-out: SK2 Ki", "value": "660 ± 110", "unit": "nM"}, {"measurement": "inhibition of CHIKV infection (nsP3 expression), screen", "setting": "[4]; [9]", "value": "significantly inhibited CHIKV infection"}, {"measurement": "viral glycoprotein (E2) expression", "setting": "[4]; 1 h pre-treatment, HeLa, MOI = 1, 24 h, Supplementary Figure S3", "value": "decreased"}, {"measurement": "EC50", "setting": "[4]; Chikungunya virus, HeLa", "value": 2900, "unit": "nM"}, {"measurement": "EC50", "setting": "[4]", "value": 2910, "unit": "nM"}, {"measurement": "anti-CHIKV activity at higher MOI", "setting": "[4]; HeLa, MOI = 10, 24 h", "value": "retained significant anti-CHIKV activity"}, {"measurement": "timing of effective inhibition of CHIKV infection", "setting": "[4]; treatment 1 h before, along with or 1 h after infection, MOI 1", "value": "highest inhibitory effect occurring when the compound is used prior to infection; also recorded: maximal inhibition occurring when SLL3071511 is added prior to infection"}, {"measurement": "non-toxic concentration", "setting": "[6]", "value": "up to 50 µM"}, {"measurement": "viral nsP1 expression", "setting": "[7]", "value": "significantly diminished"}, {"measurement": "plaque counts (infectious virus release)", "setting": "[8]", "value": "significantly diminished"}]}]}
